According to PMC9659204, “Biochemical Characterization of Pyranose Oxidase from Streptomyces canus—Towards a Better Understanding of Pyranose Oxidase Homologues in Bacteria” (International Journal of Molecular Sciences, 2022):

Test system: T1, ScPOx (pyranose oxidase from Streptomyces canus)
T1 construct: synthetic codon-optimised gene in pET-21d+ (NcoI/HindIII), C-terminal His6 tag, E. coli BL21(DE3); 52 kDa monomer, noncovalent FAD
Experiment: steady-state kinetics, spectrophotometric
Format: biochemical
Settings: apparent; electron acceptor; 4 M D-xylose as electron donor; 50 mM potassium phosphate pH 6.5; 30 °C
Source text: steady-state kinetics, spectrophotometric on ScPOx (pyranose oxidase from Streptomyces canus)

| Structure (SMILES) | Km [µM] |
| --- | --- |
| O=C1C(Cl)=CC(=Nc2ccc(O)cc2)C=C1Cl [DCIP] | 50 ± 10 |
| O=C1C=CC(=O)C=C1 [p-BQ] | 130 ± 20 |
